Experimental data: patent US11213512B2, “Bis-amino acid based compound and use thereof” (THE CURATORS OF THE UNIVERSITY OF MISSOURI, priority 2016, dated 2022)

Columns and labels:
E. coli K12 = assay: MIC, CLSI/NCCLS broth microdilution; assay type: cell-based, Escherichia coli; details: Escherichia coli, K12, 24 h, read-out: Minimal Inhibitory Concentration (MIC) E. coli K12
Method: (§1) Two different strains of E. coli (Gram-negative) were used. The laboratory strain of E. coli, K-12 (ATCC Accession No. 700926), was used for preliminary MIC determinations. The tetracycline resistant strain of E. coli (Tet^R) was prepared by transforming competent JM109 E. coli (Promega) with the pBR322 plasmid (Carolina Biologicals) using the manufacturers protocol. This plasmid contains two resistance genes: the tetA gene expresses the tetracycline resistance TetA efflux pump (Sapunaric and Levy, Microbiol. 2005, 151, 2315-2322) and the amp^R gene expresses a β-lactamase enzyme (Bolivar, et al; Gene 1977, 2, 95-113) that cleaves the four membered ring of penicillin derivatives. The resulting E. coli, which we designate Tet^R E. coli, is both tetracycline and ampicillin resistant. The TetA efflux pump belongs to the major facilitator superfamily (MFS), spans the cytoplasmic membrane, and transports tetracycline from the cell cytoplasm to the periplasmic space (Thanassi, et al., J. Bacteriol. 1995, 177, 998-1007). This active efflux utilizes the proton gradient as an energy source (Levy, Antimicrob. Agents Chemother. 1992, 36, 695-703). One Gram-positive strain, S. aureus (ATCC Accession No. 29213), used for MIC study expresses the MFS type NorA efflux pump and is methicillin sensitive. MFS type efflux pumps are clinically relevant for resistance in both Gram-positive and Gram-negative bacteria (Sun, et al., Biochem. Biophys. Res. Commun. 2014, 453, 254-267). A Staphylococcus aureus 1199B strain that overexpresses the NorA efflux pump was also used to conduct checkerboard experiments (see, Example 8 below). This strain of S. aureus 1199B is resistant to both norfloxacin and ethidium bromide.
(§2) K-12 E. coli and S. aureus were acquired from ATCC. The S. aureus strain was used in the BSL-2 facility. K-12 E. coli was grown in L. B. Miller media (Sigma-Aldrich) and S. aureus was grown in cation adjusted MHII media (Sigma-Aldrich). Tet^R E. coli was grown in L. B. Miller media containing 100 μg/mL Ampicillin.
(§3) MIC experiments were performed as described in the Clinical and Laboratory Standards Institute (CLSI) standard microdilution protocols. Bacteria was grown overnight from one CFU in media without antibiotics. Tet^R E. coli was grown in media containing 100 μg/mL Ampicillin. On the day of experiment, bacteria were knocked back to O.D. 600 nm=0.550 in the same media. These exponential phase bacteria were then diluted in antibiotics-free media to get […]. In a 96-well plate either L. B. Miller or MHII media was added followed by serially diluted compounds 1-11, tetracycline, or ampicillin. All the tryptophan based compounds were dissolved in DMSO and the final concentration of DMSO in each well was kept constant at 0.5% (v/v).
(§4) For the combination experiments, first, the BT or control was added to the media in the well followed by the antibiotics. The contents of the well were mixed before adding 20 μL of bacteria to get 4×10^5 CFU/mL per well. The plates were incubated at 37° C., 200 RPM for 24 hours before collecting results on the Biotek Cytation 3 plate reader. No more than three plates were stacked on top of each other at a time. Optical density of the wells was determined at λ=600 nm. Cells alone were considered as 0% inhibition and media alone was considered as 100% inhibition. Any inhibition greater than 80% was considered as the MIC. The results were reproduced three times before reporting.
(§5) All minimum inhibitory concentration (MIC) values for compounds 1-11 were determined according to the methods prescribed by the National Committee for Clinical Laboratory Standards (NCCLS, Methods for Dilution Antimicrobial Susceptibility Tests for Bacteria that grow aerobically; National Committee for Clinical Laboratory Standards 2000, 5th Edition, M7-A5). […]

Tet^R E. coli = assay: MIC, CLSI/NCCLS broth microdilution; assay type: cell-based, Escherichia coli; details: 24 h; for MIC: Escherichia coli, read-out: Minimal Inhibitory Concentration (MIC) E. coli Tet^R; for Minimal Inhibitory Concentration (MIC) E. coli Tet^R: >80% growth inhibition, 37° C., substance alone
Method: as §1, §2, §3, §4, §5

Cos-7 cells = assay: Cytotoxicity to mammalian cells, XTT assay; assay type: cell-based, Cercopithecus aethiops; details: 24 h; for cytotoxicity to Cos-7 (in words): at MIC against Tet^R E. coli (2: 48, 7: 128, 10: 10 μM); for percent survival Cos-7: at MIC against Tet^R E. coli (2: 48, 3: 28, 5: 56, 6: 120, 7: 128, 10: 10 μM); for survival of Cos-7 (in words): two-fold increase over MIC / highest concentrations tested
Method: It was initially hypothesized that antimicrobial activity resulted from membrane disruption. Membrane active compounds are often cytotoxic to mammalian cells (Shai, Biopolymers 2002, 66, 236-48; Shai, et al., Curr. Protein Pept. Sci. 2006, 7, 479-86). The survival of three mammalian epithelial cell lines was assayed for 2, 3, 5, and 10. […] The cell lines studied were human embryonic kidney (HEK-293), human cervix epithelial (HeLa, ATCC Accession No. CCL-2), and Cercopithecus aethiops kidney (Cos-7, ATCC Accession No. CRL 1651). HeLa cells were acquired from ATCC. Cos-7 and HEK-293 cells were donated by colleagues. Cell lines were regularly maintained in growth media containing DMEM (ATCC), 10% fetal bovine serum (FBS, ATCC) and 1% penicillin-streptomycin solution (ATCC). Adherent HEK-293, HeLa and Cos-7 cells were trypsinized using 0.25% (w/v) trypsin-EDTA (Sigma-Aldrich), suspended in a fresh media and diluted to get a concentration of 3×10^5 cells/ml. Cells were seeded in a 96-well plate (100 μL/well) to get 3×10^4 cells/well. The plates were incubated for 24 hours at 5% CO2 and 37° C. to reach a confluency of 80-90%.
In a sterile 1.5 mL micro-centrifuge tube, compounds 2, 3, 5, 6, 7 and 10 (0.5% DMSO) were mixed with assay media (DMEM+10% FBS) and serially diluted by 2-fold each to get 2[MIC], [MIC], ½[MIC] and ¼ [MIC] concentrations. A control containing 0.5% DMSO was also prepared. After 24 hours, the spent media in the 96-well plate containing HEK-293, HeLa and Cos-7 cells (90% confluency) was replaced with 100 μL media containing the compounds 2, 3, 5, 6, 7 and 10 at various concentrations. The cells were incubated at 37° C. and 5% CO2 for 24 hours before performing XTT assay (Sigma-Aldrich). The XTT assay was performed according to the manufacturer's protocol. After 24 hours of treatment with compounds, the media was replaced with PBS and 25 μL XTT was added to each well. The XTT assay works by the reduction of tetrazolium compound by alive cells to the colored soluble formazan product. The absorbance of the product was measured at 450 nm (XTT) and 690 nm (background). Percent survival was calculated by comparing the average absorbance of cells treated with compounds 2, 3, 5, 6, 7, and 10 to that of cells alone. Two replicates for each treatment were determined. Average percent survival and standard deviation were calculated.
Cells were cultured for 24 h in 96-well plates and treated with media containing concentrations using [MIC] and [MIC]×2 determined previously for Tet^R E. coli. The number of surviving cells was determined using an XTT assay (Sigma-Aldrich); the results are represented as percent survival in FIG. 2. Cells alone were used as controls and established 100% survival. The data represent two replicates of three trials and the error bars represent the standard deviation.

SMILES	MIC (E. coli K12) [µM]	MIC (Tet^R E. coli) [µM]	cytotoxicity to Cos-7 (in words) (Cos-7 cells)	percent survival Cos-7 (Cos-7 cells) [%]	Minimal Inhibitory Concentration (MIC) E. coli Tet^R (Tet^R E. coli) [µM]	survival of Cos-7 (in words) (Cos-7 cells)
Cl.Cl.N[C@@H](Cc1c[nH]c2ccccc12)C(=O)NCCCNC(=O)[C@@H](N)Cc1c[nH]c2ccccc12 [Compound 7, (2S,2′S)-1,1′-(Propane-1,3-diylbis(azanediyl))bis(3-(1H-indol-3-yl)-1-oxopropan-2-aminium) chloride]	> 128	> 128	minimally toxic	–	–	–
Cl.Cl.N[C@@H](Cc1c[nH]c2ccccc12)C(=O)Nc1ccc(NC(=O)[C@@H](N)Cc2c[nH]c3ccccc23)cc1 [Compound 6, (2S,2′S)-1,1′-(1,4-Phenylenebis(azanediyl))bis(3-(1H-indol-3-yl)-1-oxopropan-2-aminium) chloride]	128	120 ± 14	–	100	–	–
Cl.Cl.N[C@H](Cc1c[nH]c2ccccc12)C(=O)Nc1cccc(NC(=O)[C@H](N)Cc2c[nH]c3ccccc23)c1 [Compound 3, (2R,2′R)-1,1′-(1,3-Phenylenebis(azanediyl))bis(3-(1H-indol-3-yl)-1-oxopropan-2-aminium) chloride]	64	28 ± 4	–	100	28 ± 4	–
Cl.Cl.N[C@@H](Cc1c[nH]c2ccccc12)C(=O)Nc1cccc(NC(=O)[C@@H](N)Cc2c[nH]c3ccccc23)c1 [Compound 2, (2S,2′S)-1,1′-(1,3-Phenylenebis(azanediyl))bis(3-(1H-indol-3-yl)-1-oxopropan-2-aminium) chloride]	64	48 ± 8	no cytotoxicity	100	48 ± 8	unaffected
Cl.Cl.N[C@H](Cc1c[nH]c2ccccc12)C(=O)NCCCCCCCCCCCCNC(=O)[C@@H](N)Cc1c[nH]c2ccccc12 [Compound 10, (S)-1-((12-((R)-2-Ammonio-3-(1H-indol-3-yl)propanamido)dodecyl)amino)-3-(1H-indol-3-yl)-1-oxopropan-2-aminium chloride]	8	10 ± 2	minimally toxic	–	–	–
Cl.Cl.N[C@@H](Cc1c[nH]c2ccccc12)C(=O)Nc1ccccc1NC(=O)[C@@H](N)Cc1c[nH]c2ccccc12 [Compound 5, (2S,2′S)-1,1′-(1,2-Phenylenebis(azanediyl))bis(3-(1H-indol-3-yl)-1-oxopropan-2-aminium) chloride]	64	56 ± 8	–	100	–	unaffected
